Results taken from patent US6264916A, “N,N-dimethyldiatrizoic acid and its conjugates as hepatobiliary agents for x-ray CT imaging” (Bracco Research, USA, priority 2000, dated 2001).
Where two headings read alike, the source gives them in different places.

Assays:
[1] = Biodistribution studies in mice (radioiodinated compounds, % ID/g-tissue); format: in vivo; conditions: tracer level, but MDTA-Na 0.18M and MDTA-NMG 0.19M; for Biodistribution, Blood 5' / Biodistribution, Kidney 5' / Biodistribution, Liver 5' / Biodistribution, Sm/Lrg. Intestine 5': 5 min; for Biodistribution, Kidney 1' / Biodistribution, Blood 1' / Biodistribution, Liver 1' / Biodistribution, Sm/Lrg. Intestine 1': 1 min; for tissue uptake at 1 min / tissue uptake at 5 min / tissue uptake at 1 h: mouse, iv; for Biodistribution, Blood 60' / Biodistribution, Kidney 60' / Biodistribution, Liver 60' / tissue uptake at 1 h / Biodistribution, Sm/Lrg. Intestine 60': 60'
Protocol: All of the new analogs were radiolabeled in order to determine their physical and biological properties. The iodinated compounds were exchange-labeled by heating with Na^125 I in the presence of CuSO4 and Na2 S2 O5 in glacial acetic acid at 135-150° C. for 1 h, followed by HPLC purification using a nucleosil C18 column and CH3 CN--H2 O containing 0.1% TFA as an eluent. In some cases (e.g. the compound of Example 12) the radioiodination was carried out by heating with Na*I in HOAc--NaOAc (pH 4.6) at 100° C. for 15 min. In all cases radiolabeled compounds of acceptable radiochemical purity and specific activity were obtained.
The compound of formula I, N,N-dimethyl-diatrizoic acid, was similarly radiolabeled for biological studies.
a) For intravenous administration the preferred vehicle for the compounds of formula I, II and III is bovine serum albumin, however, other physiologically acceptable vehicles may also be used.
Biodistribution studies were conducted in mice and the results are given in Table I. X-Ray CT images of MDTA in mice and rats indicate that these hydrophobic diatrizoate analogs may be of promise for liver imaging.

[2] = Water solubility of MDTA salts; format: physicochemical
Protocol: The compound of formula I, N,N-Dimethyldiatrizoic acid (I') (hereinafter sometimes referred to as MDTA) was synthesized, as in reference H. Holtermann et al., U.S. Pat. No. 3,178,673, Apr. 13, 1965, by the N-methylation of diatrizoic acid (IV) using either methyl iodide or dimethyl sulfate in aqueous media at alkaline pH to obtain pure MDTA (>99.9% purity) as a white crystalline solid (m.p. 185° C.).

## CC(=O)N(C)c1c(I)c(C(=O)O)c(I)c(N(C)C(C)=O)c1I [MDTA, 3,5-Bis-(Acetylmethylamino)-2,4,6-triiodobenzoic acid]
[1]; blood
  Biodistribution, Blood 5': 1.21 % ID/g-tissue
  Biodistribution, Blood 60': 0.00 % ID/g-tissue
[1]; kidney
  Biodistribution, Kidney 1': 37.57 % ID/g-tissue
[1]; kidney, 60 min
  Biodistribution, Kidney 60': 0.18 % ID/g-tissue
[1]; liver, 60 min
  Biodistribution, Liver 60': 0.85 % ID/g-tissue
[1]; blood, blood, read-out: Biodistribution, Blood 1'
  tissue uptake at 1 min: 4.56 %ID/g
[1]; kidney, kidney, read-out: Biodistribution, Kidney 5'
  tissue uptake at 5 min: 21.5 %ID/g
[1]; liver, liver, read-out: Biodistribution, Liver 1'
  tissue uptake at 1 min: 15.8 %ID/g
[1]; liver, liver, read-out: Biodistribution, Liver 5'
  tissue uptake at 5 min: 15.4 %ID/g
[1]; small/large intestine, small/large intestine, read-out: Biodistribution, Sm/Lrg. Intestine 1'
  tissue uptake at 1 min: 1.5 %ID/g
[1]; small/large intestine, small/large intestine, read-out: Biodistribution, Sm/Lrg. Intestine 5'
  tissue uptake at 5 min: 4.55 %ID/g
[1]; small/large intestine, small/large intestine, read-out: Biodistribution, Sm/Lrg. Intestine 60'
  tissue uptake at 1 h: 13.3 %ID/g

## CC(=O)N(C)c1c(I)c(C(=O)O)c(I)c(N(C)C(C)=O)c1I [MDTA-NMG]
[2]; listed as N-methyl-glucamine (NMG) salt
  Water solubility: ~ 1.3 M
[1]; blood
  Biodistribution, Blood 1': 6.63 % ID/g-tissue
  Biodistribution, Blood 5': 3.66 % ID/g-tissue
[1]; blood, 60 min
  Biodistribution, Blood 60': 0.12 % ID/g-tissue
[1]; kidney
  Biodistribution, Kidney 1': 13.53 % ID/g-tissue
  Biodistribution, Kidney 5': 12.65 % ID/g-tissue
[1]; kidney, 60 min
  Biodistribution, Kidney 60': 0.81 % ID/g-tissue
[1]; liver
  Biodistribution, Liver 1': 12.30 % ID/g-tissue
  Biodistribution, Liver 5': 16.23 % ID/g-tissue
[1]; liver, 60 min
  Biodistribution, Liver 60': 2.13 % ID/g-tissue
[1]; small/large intestine
  Biodistribution, Sm/Lrg. Intestine 1': 2.03 % ID/g-tissue
  Biodistribution, Sm/Lrg. Intestine 5': 3.80 % ID/g-tissue
[1]; small/large intestine, 60 min
  Biodistribution, Sm/Lrg. Intestine 60': 16.48 % ID/g-tissue

## CC(=O)N(C)c1c(I)c(C(=O)O)c(I)c(N(C)C(C)=O)c1I [MDTA-Na]
[2]; listed as sodium salt
  Water solubility: ~ 0.35 M
[1]; blood
  Biodistribution, Blood 1': 6.21 % ID/g-tissue
  Biodistribution, Blood 5': 3.03 % ID/g-tissue
[1]; kidney
  Biodistribution, Kidney 1': 12.97 % ID/g-tissue
  Biodistribution, Kidney 5': 12.72 % ID/g-tissue
[1]; kidney, 60 min
  Biodistribution, Kidney 60': 0.96 % ID/g-tissue
[1]; liver
  Biodistribution, Liver 1': 13.23 % ID/g-tissue
  Biodistribution, Liver 5': 17.56 % ID/g-tissue
[1]; liver, 60 min
  Biodistribution, Liver 60': 2.42 % ID/g-tissue
[1]; blood, blood, read-out: Biodistribution, Blood 60'
  tissue uptake at 1 h: 0.16 %ID/g
[1]; small/large intestine
  Biodistribution, Sm/Lrg. Intestine 1': 1.81 % ID/g-tissue
  Biodistribution, Sm/Lrg. Intestine 5': 3.92 % ID/g-tissue
[1]; small/large intestine, 60 min
  Biodistribution, Sm/Lrg. Intestine 60': 17.02 % ID/g-tissue
